Laboratory results published in patent US11098032B2, “Pyran dervatives as CYP11A1 (cytochrome P450 monooxygenase 11A1) inhibitors” (ORION CORPORATION, priority 2016, dated 2021).
Counter-ions that a name gives are not always drawn.

Target: T1, CYP11A1 (Homo sapiens, UniProt P05108)
T1 construct: human H295R adrenocortical carcinoma cell line was used as source of enzyme; endogenous in cells; host or cells: H295R human adrenocortical carcinoma cells
T1 sequence (P05108 40-521): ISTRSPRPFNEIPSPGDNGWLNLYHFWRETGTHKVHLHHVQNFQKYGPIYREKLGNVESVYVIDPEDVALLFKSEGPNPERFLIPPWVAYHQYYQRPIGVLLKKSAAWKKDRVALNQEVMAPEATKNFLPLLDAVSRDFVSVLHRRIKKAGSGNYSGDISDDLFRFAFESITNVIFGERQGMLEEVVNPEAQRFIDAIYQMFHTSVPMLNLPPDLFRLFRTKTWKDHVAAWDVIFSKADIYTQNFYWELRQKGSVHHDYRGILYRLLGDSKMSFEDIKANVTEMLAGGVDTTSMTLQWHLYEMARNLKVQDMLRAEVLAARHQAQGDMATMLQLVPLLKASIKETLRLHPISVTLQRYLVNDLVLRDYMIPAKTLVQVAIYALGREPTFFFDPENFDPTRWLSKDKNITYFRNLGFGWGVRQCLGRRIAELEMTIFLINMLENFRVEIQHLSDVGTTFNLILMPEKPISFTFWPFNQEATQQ
Test: CYP11A1 inhibition: modified isocaproic acid release assay (IARA) in H295R cells
Assay type: cell-based
Details: human H295R adrenocortical carcinoma cells treated three days, 3 nM [24,25-3H]-labelled cholesterol, 1% DMSO, 10 concentrations in duplicates; read-out: IC50 of the test compounds on CYP11A1 inhibition
Summary of the method: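 Cholesterol side-chain cleavage followed as tritiated isocaproic acid in charcoal-extracted medium, counted by scintillation. Substrate was 3 nM [24,25-3H]-cholesterol on human H295R cells exposed for three days to ten compound concentrations (duplicates, 1% DMSO); IC50 derived.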

With `O=c1cc(CN2Cc3ccccc3C2)occ1OCC1CCN(S(=O)(=O)N2CCCC2)CC1` [Compound 267, 2-(Isoindolin-2-ylmethyl)-5-((1-(pyrrolidin-1-ylsulfonyl)piperidin-4-yl)methoxy)-4H-pyran-4-one] the IC50 was 150 to 300 nM.

In the case of `O=c1cc(CN2Cc3ccccc3C2)occ1OCC1CCN(S(=O)(=O)N2CCC2)CC1` [Compound 268, 5-((1-(Azetidin-1-ylsulfonyl)piperidin-4-yl)methoxy)-2-(isoindolin-2-ylmethyl)-4H-pyran-4-one], the IC50 is reported as 150 to 300 nM.

With `CCOC(=O)C(=O)N1CCC(COc2coc(CN3Cc4ccccc4C3)cc2=O)CC1` [Compound 269, Ethyl 2-(4-(((6-(isoindolin-2-ylmethyl)-4-oxo-4H-pyran-3-yl)oxy)methyl)-piperidin-1-yl)-2-oxoacetate] the IC50 was 150 to 300 nM.

Molecule `CC(C)S(=O)(=O)N1CCC(COc2coc(CN3Cc4ccccc4C3)cc2=O)CC1` [Compound 270, 2-(Isoindolin-2-ylmethyl)-5-((1-(isopropylsulfonyl)piperidin-4-yl)methoxy)-4H-pyran-4-one] has an IC50 of 150 to 300 nM.

With `CC(C)CS(=O)(=O)N1CCC(COc2coc(CN3Cc4ccccc4C3)cc2=O)CC1` [Compound 271, 5-((1-(Isobutylsulfonyl)piperidin-4-yl)methoxy)-2-(isoindolin-2-ylmethyl)-4H-pyran-4-one] the IC50 was under 150 nM.

With `CC(C)C(=O)N1CCC(COc2coc(CN3Cc4ccccc4C3)cc2=O)CC1` [Compound 272, 5-((1-Isobutyrylpiperidin-4-yl)methoxy)-2-(isoindolin-2-ylmethyl)-4H-pyran-4-one] the IC50 was under 150 nM.

`O=C(N1CCC(COc2coc(CN3Cc4ccccc4C3)cc2=O)CC1)C(F)(F)F` [Compound 273, 2-(Isoindolin-2-ylmethyl)-5-((1-(2,2,2-trifluoroacetyl)piperidin-4-yl)methoxy)-4H-pyran-4-one] showed an IC50 of 150 to 300 nM.

For `CS(=O)(=O)N1CC[C@@H](COc2coc(CN3Cc4ccccc4C3)cc2=O)C1` [Compound 277, (R)-2-(Isoindolin-2-ylmethyl)-5-((1-(methylsulfonyl)pyrrolidin-3-yl)methoxy)-4H-pyran-4-one], the IC50 was 301 to 2000 nM.

`N#Cc1ccc(COc2coc(CN3Cc4ccc(Br)cc4C3)cc2=O)cc1` [Compound 278, 4-((6-((5-Bromoisoindolin-2-yl)methyl)-4-oxo-4H-pyran-3-yloxy)methyl)benzonitrile] was tested, and the IC50 was under 150 nM.

Molecule `Cc1ccc2c(c1)CN(Cc1cc(=O)c(OCc3ccc(S(C)(=O)=O)cc3)co1)C2` [Compound 279, 2-((5-Methylisoindolin-2-yl)methyl)-5-((4-(methylsulfonyl)benzyl)oxy)-4H-pyran-4-one] has an IC50 of 150 to 300 nM.

In the case of `CSc1ccc2c(c1)CN(Cc1cc(=O)c(OCc3ccc(S(C)(=O)=O)cc3)co1)C2` [Compound 280, 5-((4-(Methylsulfonyl)benzyl)oxy)-2-((5-(methylthio)isoindolin-2-yl)methyl)-4H-pyran-4-one], the IC50 is reported as 150 to 300 nM.

`CS(=O)(=O)c1ccc(COc2coc(CN3Cc4cccc(Cl)c4C3)cc2=O)cc1` [Compound 281, 2-((4-Chloroisoindolin-2-yl)methyl)-5-((4-(methylsulfonyl)benzyl)oxy)-4H-pyran-4-one] gave an IC50 of 301 to 2000 nM.

For `O=C(NCCCO)c1ccc(COc2coc(CN3Cc4ccccc4C3)cc2=O)cc1` [Compound 282, N-(3-Hydroxypropyl)-4-(((6-(isoindolin-2-ylmethyl)-4-oxo-4H-pyran-3-yl)oxy)methyl)benzamide], the IC50 was 301 to 2000 nM.

For `CC(C)(CO)NC(=O)c1ccc(COc2coc(CN3Cc4ccccc4C3)cc2=O)cc1` [Compound 283, N-(1-hydroxy-2-methylpropan-2-yl)-4-(((6-(isoindolin-2-ylmethyl)-4-oxo-4H-pyran-3-yl)oxy)methyl)benzamide], the IC50 was 150 to 300 nM.

`O=CN1CCC(COc2coc(CN3Cc4ccccc4C3)cc2=O)CC1` [Compound 284, 4-(((6-(Isoindolin-2-ylmethyl)-4-oxo-4H-pyran-3-yl)oxy)methyl)piperidine-1-carbaldehyde, HCl] gave an IC50 of 150 to 300 nM.

`C[S@@](=N)(=O)c1ccc(COc2coc(CN3Cc4ccc(C(F)(F)F)cc4C3)cc2=O)cc1` [Compound 286, 5-((4-(R-Methylsulfonimidoyl)-benzyl)oxy)-2-((5-(trifluoromethyl)isoindolin-2-yl)methyl)-4H-pyran-4-one] was tested, and the IC50 was under 150 nM.

In the case of `CS(=O)(=O)N1CCC(COc2coc(Cn3cc4ccc(C(F)(F)F)cc4c3)cc2=O)CC1` [Compound 287, 5-((1-(Methylsulfonyl)piperidin-4-yl)methoxy)-2-((5-(trifluoromethyl)-2H-isoindol-2-yl)methyl)-4H-pyran-4-one], the IC50 is reported as 301 to 2000 nM.

For `CS(=O)(=O)N1CCC(COc2coc(C[N+]3([O-])Cc4ccccc4C3)cc2=O)CC1` [Compound 289, 2-((5-((1-(Methylsulfonyl)piperidin-4-yl)methoxy)-4-oxo-4H-pyran-2-yl)-methyl)isoindoline 2-oxide], the IC50 was 301 to 2000 nM.

`CS(=O)(=O)N1CCC(COc2coc(C[N+]3([O-])Cc4ccc(C(F)(F)F)cc4C3)cc2=O)CC1` (centres unmarked) [Compound 290, 2-((5-((1-(Methylsulfonyl)piperidin-4-yl)methoxy)-4-oxo-4H-pyran-2-yl)methyl)-5-(trifluoromethyl)isoindoline 2-oxide] gave an IC50 of 301 to 2000 nM.

For `CS(=O)(=O)N1C=CC(COc2coc(CN3Cc4ccc(C(F)(F)F)cc4C3)cc2=O)CC1` (centres unmarked) [Compound 291, 5-((1-(Methylsulfonyl)-1,2,3,4-tetrahydropyridin-4-yl)methoxy)-2-((5-(trifluoro-methyl)isoindolin-2-yl)methyl)-4H-pyran-4-one], the IC50 was 150 to 300 nM.
